Laboratory results: patent publication US20250376507A1, “NOVEL TUMOR ANTIGEN-TARGETING ANTICANCER AGENT” (INDUSTRY FOUNDATION OF CHONNAM NATIONAL UNIVERSITY, priority 2022, published 2025)

Experiments:
CT-26 cells = assay: Cell viability (CCK-8) of CT-26 cells; type: cell-based, mouse; settings: 4 h pretreatment with anticancer agent alone
Protocol: CT-26 and MC-38 cells (10^4 cells per well) were seeded into three wells of a 96-well plate and incubated at 37° C. The next day, the culture medium was replaced with 100 μL of fresh medium containing the above concentrations of anticancer agents. After incubation at 37° C. for 4 h, the culture medium was removed and the cells were washed three times with PBS. […] Finally, CCK-8 reagent (10 μL/well) was added for 3 h at 37° C., and the amount of color in each sample was measured at OD450.

CT-26 tumor = assay: In vivo anti-cancer efficacy in CT-26 tumor-bearing mice
Protocol: CT-26 and MC-38 tumor cells (106 in 100 μL PBS) were implanted subcutaneously into the right flanks of 6-week-old BALB/c and C57BL/6 female mice (Orient company, Korea), respectively. When the tumors reached about 100 mm^3, the tumor-bearing mice were injected intraperitoneally with anticancer agents (15 mg/kg GEM, 10 mg/kg DOX or 2 mg/kg MTX) three times every 2 days. Simultaneously, the mice were injected intravenously with the PASylated recombinant proteins of the present invention five times every 2 days. The length (L), width (W), and height (H) of each tumor were recorded every 3 days using a digital caliper, and the tumor volume (mm3) was calculated using the following formula (L×H×W)/2. Mice were euthanized when tumors were ˜1,500 mm^3 and all animal experiments were performed in accordance with the general principles and procedures outlined in the National Institutes of Health Guidelines, and all protocols were approved by the Chonnam National University Animal Care and Use Committee (permit number: HCRL 16-001).

Row | SMILES | decrease in cell viability by pretreatment with anticancer agents (CT-26 cells) [%] | average tumor weight (CT-26 tumor; day 12, combination with DOX, 8 IU/mouse) [mg] | tumor growth (CT-26 tumor; dose-finding study, DOX 10 mg/kg i.p. x3, CRT3LP i.v. x5, n=3)
1 | COc1cccc2c1C(=O)c1c(O)c3c(c(O)c1C2=O)C[C@@](O)(C(=O)CO)C[C@@H]3O[C@H]1C[C@H](N)[C@H](O)[C@H](C)O1 [DOX, doxorubicin, reference compound] | 57.9 | 304.8 | grew more slowly than untreated tumors
2 | Nc1ccn([C@@H]2O[C@H](CO)[C@@H](O)C2(F)F)c(=O)n1 [GEM, gemcitabine, reference compound] | 45.1 |  | 
3 | O=C1c2c(O)ccc(O)c2C(=O)c2c(NCCNCCO)ccc(NCCNCCO)c21 [MTX, mitozantrone, reference compound] | 62.3 |  | 
